ChEMBL document CHEMBL4619806, “Screening of a Custom-Designed Acid Fragment Library Identifies 1-Phenylpyrroles and 1-Phenylpyrrolidines as Inhibitors of Notum Carboxylesterase Activity” (J Med Chem, 2020)
≈ marks a conversion by molar mass, not a printed value.

Key:
[1] = biological target: T1, Palmitoleoyl-protein carboxylesterase NOTUM (Homo sapiens, UniProt Q6P988, C330S); test: Inhibition of human Notum (S81 to T451 residues) Cys330Ser mutant expressed in HEK293S GnTI cells using OPTS as substrate incubated for 40 mins by fluorescence based assay
[2] = biological target: T1, Palmitoleoyl-protein carboxylesterase NOTUM; test: Inhibition of human Notum (S81 to T451 residues) Cys330Ser mutant expressed in HEK293S GnTI cells at 100 uM using OPTS as substrate incubated for 40 mins by fluorescence based assay relative to control
[3] = Intrinsic clearance in mouse liver microsomes at 1 uM measured up to 60 mins in presence of NADPH by LC-MS/MS analysis; format: ADME, Microsome; conditions: read-out: CLH
[4] = Apparent permeability from apical to basolateral side in MDCK2-MDR1 cells at 10 uM measured up to 120 mins by LC-MS/MS analysis; format: ADME, cell-based, Canis lupus familiaris; conditions: dog, MDCK-MDR1
[5] = Apparent permeability from basolateral to apical side in MDCK2-MDR1 cells at 10 uM measured up to 120 mins by LC-MS/MS analysis; format: ADME, cell-based, Canis lupus familiaris; conditions: dog, MDCK-MDR1
[6] = Chromatographic hydrophobicity index, log D of the compound at pH 7.4; format: physicochemical; conditions: buffer
[7] = Efflux ratio of apparent permeability in MDCK2-MDR1 cells at 10 uM measured up to 120 mins by LC-MS/MS analysis; format: ADME, cell-based, Canis lupus familiaris; conditions: dog, MDCK-MDR1
[8] = Aqueous solubility at pH 7.4; format: physicochemical; conditions: buffer

T1 sequence (Q6P988 20-496 C330S limits assumed): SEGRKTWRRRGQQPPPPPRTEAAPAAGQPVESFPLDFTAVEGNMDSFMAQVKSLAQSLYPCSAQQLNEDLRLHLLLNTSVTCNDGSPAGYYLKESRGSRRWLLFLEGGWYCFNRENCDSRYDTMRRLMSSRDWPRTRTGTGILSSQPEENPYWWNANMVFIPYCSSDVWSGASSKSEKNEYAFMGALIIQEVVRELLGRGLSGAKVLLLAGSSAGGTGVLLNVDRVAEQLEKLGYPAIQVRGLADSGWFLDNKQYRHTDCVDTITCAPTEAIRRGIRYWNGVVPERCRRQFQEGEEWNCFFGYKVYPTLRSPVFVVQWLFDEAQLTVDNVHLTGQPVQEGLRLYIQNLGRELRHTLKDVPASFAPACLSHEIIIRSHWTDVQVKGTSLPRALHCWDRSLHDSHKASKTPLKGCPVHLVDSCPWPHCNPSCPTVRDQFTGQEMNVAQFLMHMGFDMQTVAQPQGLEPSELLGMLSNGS

Row | SMILES | IC50 [1] [µM] | also measured
1 | O=C(O)C1CCN(c2ccc(Cl)c(Cl)c2)C1 (racemic) | 1.2 | 
2 | Cc1c[nH]cc1C(=O)O | 100 | inhibition at 100 µM [2]: 50%
3 | Cc1cc(C(=O)O)c(C)n1C | > 100 | inhibition at 100 µM [2]: 20 to 40%
4 | O=C(C1CCN(c2ccc(Cl)c(C(F)(F)F)c2)C1)N1CC(F)(F)C1 (configuration not stated) | 0.26 | microsomal CLint at 1 µM [3]: 21 µL/min/mg; Papp A→B at 2 h, 10 µM [4]: 8 ×10⁻⁶ cm/s; Papp B→A at 2 h, 10 µM [5]: 10 ×10⁻⁶ cm/s; chromatographic logD [6]: 4; efflux ratio at 2 h, 10 µM [7]: 1.2; solubility [8]: 19 µM (≈ 7.01 µg/mL)
5 | O=C(O)C1CCN(c2cccc(Cl)c2)C1 (racemic) | 14 | 
6 | O=C(O)C1CCN(c2cccc(Cl)c2Cl)C1 (racemic) | 8 | 
7 | Cc1cc(C(=O)O)c(C)n1-c1cccc(C2CC2)c1F | 0.2 | 
8 | Cc1cc(C(=O)O)c(C)n1-c1cccc(Cl)c1F | 0.38 | 
9 | COc1cccc(-n2c(C)cc(C(=O)O)c2C)c1 | 1.5 | 
10 | Cc1cc(C(=O)O)c(C)n1-c1cccc(F)c1 | 1.5 | 
11 | O=C(O)C1CCN(c2ccc(C(F)(F)F)c(Cl)c2)C1 (racemic) | 8.5 | 
12 | O=C(Nc1ccccc1)C1CCN(c2ccc(Cl)c(C(F)(F)F)c2)C1 (configuration not stated) | 1 | 
13 | Cc1cc(C(=O)O)c(C)n1-c1cccc(Cl)c1 | 0.43 | 
14 | O=C(O)C1CCN(c2ccc(Cl)cc2)C1 (racemic) | 19 | 
15 | O=C(O)C1CCN(c2ccccc2Cl)C1 (configuration not stated) | 19 | 
16 | Cc1cc(C(=O)O)c(C)n1-c1cccc(C(C)C)c1 | 0.36 | 
17 | FC(F)(F)c1cc(N2CCC(c3nnco3)C2)ccc1Cl (configuration not stated) | 24 | 
18 | CC(C)c1cccc(N2CCC(C(=O)O)C2)c1 (racemic) | 57 | 
19 | Cc1cc(C(=O)O)c(C)n1-c1cccc(C2CC2)c1 | 0.58 | 
20 | Cc1cc(C(=O)O)c(C)[nH]1 | > 100 | inhibition at 100 µM [2]: < 20%
21 | Cc1cc(C(=O)O)c(C)n1-c1ccc(F)cc1 | 1.9 | 

Row | SMILES | IC50 [1] [µM] | also measured
22 | Cc1cc(C(=O)O)c[nH]1 | 100 | inhibition at 100 µM [2]: 50%
23 | O=C(O)C1CCN(c2ccc(F)c(C(F)(F)F)c2)C1 (racemic) | 2.5 | 
24 | O=C(O)C1CCN(c2cc(Cl)ccc2Cl)C1 (racemic) | 7.9 | 
25 | Cc1cc(C(=O)O)c(C)n1-c1ccc(Cl)c(Cl)c1 | 0.27 | 
26 | O=C(O)C1CCN(c2ccccc2F)C1 (configuration not stated) | 11 to 11.3 | 
27 | O=C(O)C1CCN(c2ccc(F)cc2)C1 (racemic) | 15 | 
28 | Cc1c[nH]c(C)c1C(=O)O | 100 | inhibition at 100 µM [2]: 50%
29 | Cc1cc(C(=O)O)c(C)n1-c1cc(Cl)cc(Cl)c1 | 0.85 | 
30 | Cc1cc(C(=O)O)c(C)n1-c1c(Cl)cccc1Cl | 2.3 | 
31 | Cc1c(C(=O)O)cc(C(F)(F)F)n1Cc1ccccc1 | > 100 | inhibition at 100 µM [2]: 20 to 40%
32 | O=C(O)C1CCN(c2ccc(C(F)(F)F)cc2)C1 (racemic) | 50 | 
33 | O=C(O)c1c[nH]c(C(F)(F)F)c1 | > 100 | inhibition at 100 µM [2]: < 20%
34 | Cc1ccc(-n2c(C)cc(C(=O)O)c2C)cc1 | 2 | 
35 | Cc1cc(C(=O)O)c(C)n1-c1cccc(C(C)(C)C)c1 | 0.46 | 
36 | O=C(O)C1CCN(c2ccc(Cl)c(Cl)c2Cl)C1 (racemic) | 0.6 | 
37 | Cc1cc(C(=O)O)c(C)n1CC1CC1 | 12.7 | 
38 | Cc1cc(C(=O)O)c(C)n1C1CC1 | 6.3 | 
39 | COCCNC(=O)C1CCN(c2ccc(Cl)c(C(F)(F)F)c2)C1 (configuration not stated) | 3.5 | 
40 | COc1c(Cl)cccc1-n1c(C)cc(C(=O)O)c1C | 0.8 | 
41 | Cc1c(C(=O)O)ccn1Cc1ccccc1 | 3.1 | 
42 | Cc1c(C(=O)O)cc(C(F)(F)F)n1-c1ccccc1 | 22 | 

Row | SMILES | IC50 [1] [µM] | also measured
43 | Cc1cc(C(=O)O)c(C)n1-c1ccc(C(F)(F)F)c(Cl)c1 | 1.5 | 
44 | Cc1cc(C(=O)O)c(C)n1-c1ccc(Cl)cc1 | 0.86 | 
45 | Cc1[nH]c(C(F)(F)F)cc1C(=O)O | 6.7 | 
46 | Cc1cccc(N2CCC(C(=O)O)C2)c1 (racemic) | 49 | 
47 | Cc1cc(C(=O)O)c(C)n1-c1cccc(Cl)c1C#N | 2 | 
48 | O=C(O)[C@H]1CCN(c2ccc(Cl)c(C(F)(F)F)c2)C1 |  | microsomal CLint at 1 µM [3]: 2.5 µL/min/mg; Papp A→B at 2 h, 10 µM [4]: 39 ×10⁻⁶ cm/s; Papp B→A at 2 h, 10 µM [5]: 43 ×10⁻⁶ cm/s; chromatographic logD [6]: 1.5; solubility [8]: > 595 µM
49 | O=C(O)C1CCN(c2cccc(OC(F)(F)F)c2)C1 (racemic) | 63 | 
50 | Cc1cc(C(=O)O)c(C)n1-c1ccccc1F | 3.3 | 
51 | N#Cc1cccc(N2CCC(C(=O)O)C2)c1 (racemic) | 42 | 
52 | Cc1cc(C(=O)O)c(C)n1-c1cccc(C(C)C)c1F | 0.15 | microsomal CLint at 1 µM [3]: 52 µL/min/mg; Papp A→B at 2 h, 10 µM [4]: 46 ×10⁻⁶ cm/s; Papp B→A at 2 h, 10 µM [5]: 43 ×10⁻⁶ cm/s; chromatographic logD [6]: 3.1; efflux ratio at 2 h, 10 µM [7]: 0.93; solubility [8]: 51 µM (≈ 14 µg/mL)
53 | Cc1cc(C(=O)O)c(C)n1-c1cccc(C#N)c1 | 3.1 | 
54 | CN1CCN(C(=O)C2CCN(c3ccc(Cl)c(C(F)(F)F)c3)C2)CC1=O (configuration not stated) | 3.1 | 
55 | CCOc1cccc(-n2c(C)cc(C(=O)O)c2C)c1 | 0.64 | 
56 | Cc1cc(C(=O)O)c(C)n1-c1cccc(C#N)c1F | 0.63 | 
57 | O=C(O)C1CCN(c2cccc(C(F)(F)F)c2)C1 (racemic) | 11 | 
58 | O=C(C1CCN(c2ccc(Cl)c(C(F)(F)F)c2)C1)N1CCCC1 (configuration not stated) | 0.41 | 
59 | O=C(O)c1cc[nH]c1 | > 100 | inhibition at 100 µM [2]: < 20%
60 | O=C(O)C1CCN(c2cc(Cl)cc(Cl)c2)C1 (racemic) | 11 | 
61 | O=C(C1CCN(c2ccc(Cl)c(C(F)(F)F)c2)C1)N1CC2COCC2C1 (configuration not stated) | 3.1 | 
62 | Cc1cccc(-n2c(C)cc(C(=O)O)c2C)c1 | 1.5 | 
63 | O=C(O)C1CCN(c2ccc(Cl)cc2Cl)C1 (racemic) | 10 | 

Row | SMILES | IC50 [1] [µM] | also measured
64 | CN(C)C(=O)C1CCN(c2ccc(Cl)c(C(F)(F)F)c2)C1 (configuration not stated) | 1.2 | 
65 | Cc1c(C(=O)O)ccn1-c1ccccc1 | 3.8 | 
66 | O=C(O)C1CCN(c2cccc(C(F)(F)F)c2F)C1 (configuration not stated) | 6.8 | 
67 | Cc1cc(C(=O)O)c(C)n1Cc1ccccc1 | 14 | 
68 | O=c1[nH]nc(C2CCN(c3ccc(Cl)c(C(F)(F)F)c3)C2)o1 (configuration not stated) | 4.2 | microsomal CLint at 1 µM [3]: 10 µL/min/mg; Papp A→B at 2 h, 10 µM [4]: 13 ×10⁻⁶ cm/s; Papp B→A at 2 h, 10 µM [5]: 19 ×10⁻⁶ cm/s; chromatographic logD [6]: 3.5; efflux ratio at 2 h, 10 µM [7]: 1.5; solubility [8]: 69 µM (≈ 23 µg/mL)
69 | O=C(O)C1CCN(c2c(Cl)cccc2Cl)C1 (racemic) | 26 | 
70 | O=C(C1CCN(c2ccc(Cl)c(C(F)(F)F)c2)C1)N1CCOCC1 (configuration not stated) | 9.7 | 
71 | Cc1cc(C(=O)O)c(C)n1-c1ccccc1Cl | 2.3 | 
72 | Cc1cc(C(=O)O)c(C)n1-c1ccccc1 | 1.7 | 
73 | Cc1cc(C(=O)O)c(C)n1-c1ccc(Cl)c(C(F)(F)F)c1 | 2.1 | 
74 | Cc1cc(C(=O)O)c(C)n1-c1ccc(Cl)cc1Cl | 0.43 | 
75 | Cc1cc(C(=O)O)c(C)n1-c1cccc(Cl)c1Cl | 0.22 | 
76 | Cc1ccccc1-n1c(C)cc(C(=O)O)c1C | 2.2 | 
77 | CNC(=O)C1CCN(c2ccc(Cl)c(C(F)(F)F)c2)C1 (configuration not stated) | 1.3 | 
78 | Cc1cc(C(=O)O)c(C)n1-c1cc(Cl)ccc1Cl | 1.7 | 
79 | Cc1[nH]ccc1C(=O)O | > 100 | inhibition at 100 µM [2]: < 20%
80 | CN1CN(C(=O)C2CCN(c3ccc(Cl)c(C(F)(F)F)c3)C2)CC1=O (configuration not stated) | 1.4 | 
81 | Cc1cc(C(=O)O)c(C)n1-c1cccc(C(F)(F)F)c1 | 1.5 | 
